Experimental data taken from ChEMBL document CHEMBL4477158, “Constituents of Fagraea fragrans with Antimycobacterial Activity in Combination with Erythromycin” (2016).

Columns and labels:
Format in all cases: functional
Escherichia coli = test: Antibacterial activity against Escherichia coli incubated for 16 to 18 hrs by broth microdilution assay
[1] = test system: Mycolicibacterium smegmatis; test: Antimycobacterial activity against Mycobacterium smegmatis incubated for 48 hrs by resazurin microplate assay
Staphylococcus aureus = test: Antibacterial activity against Staphylococcus aureus incubated for 16 to 18 hrs by broth microdilution assay
[2] = test system: Mycolicibacterium smegmatis; test: Potentiation of kanamycin-induced antimycobacterial activity against Mycobacterium smegmatis assessed as kanamycin MIC90 at 25 ug/ml after 48 hrs by resazurin microplate assay (reference value: 2.5 ug/ml)
[3] = test system: Mycolicibacterium smegmatis; test: Potentiation of erythromycin-induced antimycobacterial activity against Mycobacterium smegmatis assessed as reduction in erythromycin MIC90 at 25 ug/ml after 48 hrs by resazurin microplate assay relative to control
[4] = test system: Mycolicibacterium smegmatis; test: Potentiation of vancomycin-induced antimycobacterial activity against Mycobacterium smegmatis assessed as vancomycin MIC90 at 25 ug/ml after 48 hrs by resazurin microplate assay (reference value: 0.5 ug/ml)
[5] = test system: Mycolicibacterium smegmatis; test: Potentiation of rifampicin-induced antimycobacterial activity against Mycobacterium smegmatis assessed as rifampicin MIC90 at 25 ug/ml after 48 hrs by resazurin microplate assay (reference value: 8 ug/ml)
[6] = test system: Mycolicibacterium smegmatis; test: Potentiation of streptomycin-induced antimycobacterial activity against Mycobacterium smegmatis assessed as streptomycin MIC90 at 25 ug/ml after 48 hrs by resazurin microplate assay (reference value: 0.25 ug/ml)
[7] = test system: Mycolicibacterium smegmatis; test: Potentiation of isoniazid-induced antimycobacterial activity against Mycobacterium smegmatis assessed as isoniazid MIC90 at 25 ug/ml after 48 hrs by resazurin microplate assay (reference value: 200 ug/ml)
[8] = test system: Mycolicibacterium smegmatis; test: Potentiation of erythromycin-induced antimycobacterial activity against Mycobacterium smegmatis assessed as erythromycin MIC90 at 25 ug/ml after 48 hrs by resazurin microplate assay (reference value: 10 ug/ml)

| MIC (Escherichia coli) [µg/mL] | MIC90 [1] [µg/mL] | MIC (Staphylococcus aureus) [µg/mL] | MIC90 [2] [µg/mL] | MIC90 [4] [µg/mL] | MIC90 [5] [µg/mL] | MIC90 [6] [µg/mL] | MIC90 [7] [µg/mL] | MIC90 [8] [µg/mL] | Compound | fold change (FC) [3] |
| --- | --- | --- | --- | --- | --- | --- | --- | --- | --- | --- |
| > 128 | > 25 | > 128 | 1 | 2.5 | 8 | 0.125 | 100 | 1.25 | O=Cc1cccc2c(=O)occc12 | 8 |
| > 128 | > 25 | > 128 | – | – | – | – | – | – | C[C@@H]1OC=C2C(=O)OCC[C@H]2[C@@H]1C(=O)O | – |
| > 128 | > 25 | > 128 | 1 | 2.5 | 8 | 0.125 | 100 | 0.625 | C[C@@H]1Cc2cccc(O)c2C(=O)O1 [(-)-(R)-MELLEIN] | 16 |

Second part, the molecule before the results:

| Compound | MIC (Escherichia coli) [µg/mL] | MIC90 [1] [µg/mL] | MIC (Staphylococcus aureus) [µg/mL] | MIC90 [2] [µg/mL] | MIC90 [4] [µg/mL] | MIC90 [5] [µg/mL] | MIC90 [6] [µg/mL] | MIC90 [7] [µg/mL] | MIC90 [8] [µg/mL] | fold change (FC) [3] |
| --- | --- | --- | --- | --- | --- | --- | --- | --- | --- | --- |
| O=Cc1cccc2c1[C@H]1[C@@H]3OC(=O)c4cccc(C=O)c4[C@@H]3[C@H]1OC2=O | > 128 | > 25 | > 128 | – | – | – | – | – | – | – |
| C[C@@H]1OCC2=C(CCOC2=O)[C@@H]1CO | > 128 | > 25 | > 128 | – | – | – | – | – | – | – |
| C[C@H]1[C@@H]2C(=O)OCC[C@@H]2C[C@H]1O | > 128 | > 25 | > 128 | – | – | – | – | – | – | – |
| C[C@@H]1OCC2=C(CCOC2=O)[C@H]1CO | > 128 | > 25 | > 128 | 1 | 0.125 | 8 | 0.125 | 100 | 1.25 | 8 |
| COc1cc(/C=C/C(=O)OCCCCCCCCCCCCCCCCCCCCCCCCCCCCCC=O)ccc1O | > 128 | > 25 | > 128 | 1 | 2.5 | 8 | 0.125 | 100 | 2.5 | – |
| C/C=C1\COC(OC)C2=C1CCOC2=O (centres undefined) | > 128 | > 25 | > 128 | – | – | – | – | – | – | – |
